Assay results: the supplement of paper PMC3937590

What was measured:
Assay in all cases: -log10 GI50 (growth inhibition 50%) (-log10(M)); higher = more potent growth inhibition
21NT = tested on: 21NT
Summary of the method: (§1)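 The reported figure is the negative logarithm of GI50, defined as the molar concentration that produces the set level of growth inhibition. The logarithm is base 10. It comes from a Gompertz curve fitted by nonlinear least squares to 72-hour luminescence data from breast cancer cell lines given nine doses in 1:5 serial dilution, in triplicate, with a time-zero plate as reference. A < qualifier marks values equal to the top dose.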

MDAMB134VI = tested on: MDAMB134VI
Summary of the method: as §1

600MPE = tested on: 600MPE
Summary of the method: as §1

MDAMB175VII = tested on: MDAMB175VII
Summary of the method: as §1

21MT1 = tested on: 21MT1
Summary of the method: as §1

HCC3153 = tested on: HCC3153
Summary of the method: as §1

SUM229PE = tested on: SUM229PE
Summary of the method: as §1

BT20 = tested on: BT20
Summary of the method: as §1

HCC1569 = tested on: HCC1569
Summary of the method: as §1

MX1 = tested on: MX1
Summary of the method: as §1

184A1 = tested on: 184A1
Summary of the method: as §1

T4 = tested on: T4
Summary of the method: as §1

S1 = tested on: S1
Summary of the method: as §1

HBL100 = tested on: HBL100
Summary of the method: as §1

MDAMB436 = tested on: MDAMB436
Summary of the method: as §1

HCC202 = tested on: HCC202
Summary of the method: as §1

UACC893 = tested on: UACC893
Summary of the method: as §1

SUM102PT = tested on: SUM102PT
Summary of the method: as §1

ZR7530 = tested on: ZR7530
Summary of the method: as §1

MDAMB468 = tested on: MDAMB468
Summary of the method: as §1

CC(=O)NCC(=O)N1[C@@H]2CC[C@H]1c1ccc(Nc3ncc(C(F)(F)F)c(NC4CCC4)n3)cc12
-log10 GI50 (21NT): 5.54
-log10 GI50 (MDAMB134VI): 5.3
-log10 GI50 (600MPE): 6.03
-log10 GI50 (MDAMB175VII): 5.63
-log10 GI50 (21MT1): 5.78
-log10 GI50 (HCC3153): 5.38
-log10 GI50 (SUM229PE): 6.1
-log10 GI50 (BT20): 5.9
-log10 GI50 (HCC1569): 6.07
-log10 GI50 (MX1): 7
-log10 GI50 (184A1): 5.66

CCC[C@H](N[C@H]1CCc2cc(F)cc(F)c2C1)C(=O)Nc1cn(C(C)(C)CNCC(C)(C)C)cn1
-log10 GI50 (21NT): < 4.18
-log10 GI50 (MDAMB134VI): 4.33
-log10 GI50 (600MPE): < 4.18
-log10 GI50 (MDAMB175VII): 5.24
-log10 GI50 (21MT1): 4.38
-log10 GI50 (HCC3153): 4.37
-log10 GI50 (SUM229PE): < 4.18
-log10 GI50 (BT20): 4.76
-log10 GI50 (HCC1569): 4.27
-log10 GI50 (MX1): 5.76
-log10 GI50 (184A1): 5.87

COc1ccc(-c2cc3c(C)nc(N)nc3n([C@H]3CC[C@H](OCCO)CC3)c2=O)cn1
-log10 GI50 (21NT): 5.84
-log10 GI50 (MDAMB134VI): 6.8
-log10 GI50 (600MPE): 7.32
-log10 GI50 (MDAMB175VII): 7.23
-log10 GI50 (21MT1): 6.54
-log10 GI50 (HCC3153): 4.87
-log10 GI50 (SUM229PE): 6.25
-log10 GI50 (BT20): 5.44
-log10 GI50 (HCC1569): 6.78
-log10 GI50 (MX1): 7.41
-log10 GI50 (184A1): 6.96

C[C@@H](Oc1cc(-c2cnn(C3CCNCC3)c2)cnc1N)c1c(Cl)ccc(F)c1Cl
-log10 GI50 (21NT): 5.18
-log10 GI50 (MDAMB134VI): 5.57
-log10 GI50 (600MPE): 6.21
-log10 GI50 (MDAMB175VII): 5.23
-log10 GI50 (21MT1): 5.23
-log10 GI50 (HCC3153): 5.16
-log10 GI50 (SUM229PE): 5.57
-log10 GI50 (BT20): 5.42
-log10 GI50 (HCC1569): 5.68
-log10 GI50 (MX1): 5.84
-log10 GI50 (184A1): 5.78

C[C@@H](Oc1cc(-n2cnc3ccc(CN4CCN(C)CC4)cc32)sc1C(N)=O)c1ccccc1C(F)(F)F
-log10 GI50 (T4): 7.88
-log10 GI50 (MDAMB134VI): 7.83
-log10 GI50 (S1): 7.95
-log10 GI50 (600MPE): 5.16
-log10 GI50 (MDAMB175VII): 5.21
-log10 GI50 (HCC3153): 7.78
-log10 GI50 (SUM229PE): 7.68
-log10 GI50 (HBL100): 8.7
-log10 GI50 (MDAMB436): 7.86
-log10 GI50 (HCC1569): 7.05
-log10 GI50 (HCC202): 8.99
-log10 GI50 (UACC893): 8.15
-log10 GI50 (184A1): 5.18
-log10 GI50 (SUM102PT): 5.38
-log10 GI50 (ZR7530): 5.21
-log10 GI50 (MDAMB468): 8.41

Cn1ncc(Cl)c1-c1cc(C(=O)N[C@H](CN)Cc2ccc(F)c(F)c2)oc1Cl
-log10 GI50 (21NT): 5.35
-log10 GI50 (MDAMB134VI): 5.2
-log10 GI50 (MDAMB175VII): 6.56
-log10 GI50 (21MT1): 5.35
-log10 GI50 (HCC3153): 6.12
-log10 GI50 (SUM229PE): 5.59
-log10 GI50 (BT20): 5.25
-log10 GI50 (HCC1569): 6.55
-log10 GI50 (MX1): 8.11

N.N.[Cl][Pt][Cl] [Cisplatin]
-log10 GI50 (T4): 5.02
-log10 GI50 (MDAMB134VI): 3.73
-log10 GI50 (S1): 5.45
-log10 GI50 (600MPE): 4.33
-log10 GI50 (MDAMB175VII): 5.37
-log10 GI50 (HCC3153): 5.12
-log10 GI50 (SUM229PE): 5.26
-log10 GI50 (HBL100): 5.05
-log10 GI50 (MDAMB436): 5
-log10 GI50 (HCC1569): 5.11
-log10 GI50 (HCC202): 6.06
-log10 GI50 (UACC893): 3.76
-log10 GI50 (184A1): 5.53
-log10 GI50 (SUM102PT): < 3.3
-log10 GI50 (ZR7530): 5.58
-log10 GI50 (MDAMB468): 5.27

CCN(CC)C(=S)SSC(=S)N(CC)CC [Disulfiram]
-log10 GI50 (21NT): 4.72
-log10 GI50 (MDAMB134VI): 5.88
-log10 GI50 (600MPE): 7.1
-log10 GI50 (MDAMB175VII): 7.02
-log10 GI50 (21MT1): < 4.18
-log10 GI50 (HCC3153): 5.13
-log10 GI50 (SUM229PE): 4.5
-log10 GI50 (BT20): 7.3
-log10 GI50 (HCC1569): < 4.18
-log10 GI50 (MX1): 4.54
-log10 GI50 (HCC202): 4.84
-log10 GI50 (184A1): 4.9
-log10 GI50 (ZR7530): 7.05

COc1cccc2c1C(=O)c1c(O)c3c(c(O)c1C2=O)C[C@@](O)(C(=O)CO)C[C@@H]3O[C@H]1C[C@H](N)[C@H](O)[C@H](C)O1 [Doxorubicin]
-log10 GI50 (T4): 6.9
-log10 GI50 (MDAMB134VI): 5.95
-log10 GI50 (S1): 6.09
-log10 GI50 (600MPE): 6.69
-log10 GI50 (MDAMB175VII): 6.48
-log10 GI50 (HCC3153): 6.48
-log10 GI50 (SUM229PE): 6.72
-log10 GI50 (HBL100): 7.37
-log10 GI50 (MDAMB436): 6.29
-log10 GI50 (HCC1569): 5.59
-log10 GI50 (HCC202): 6.61
-log10 GI50 (UACC893): 6.14
-log10 GI50 (184A1): 6.95
-log10 GI50 (SUM102PT): 6.61
-log10 GI50 (ZR7530): 6.96
-log10 GI50 (MDAMB468): 6.13

COC1=C2C[C@@H](C)C[C@H](OC)[C@H](O)[C@@H](C)/C=C(\C)[C@H](OC(N)=O)[C@@H](OC)/C=C\C=C(/C)C(=O)NC(=CC1=O)C2=O [Geldanamycin]
-log10 GI50 (T4): 8.22
-log10 GI50 (MDAMB134VI): 7.8
-log10 GI50 (S1): 8.82
-log10 GI50 (600MPE): 7.43
-log10 GI50 (MDAMB175VII): 7.75
-log10 GI50 (HCC3153): 7.18
-log10 GI50 (SUM229PE): 7.91
-log10 GI50 (HBL100): 7.6
-log10 GI50 (MDAMB436): 7.15
-log10 GI50 (HCC1569): 7.47
-log10 GI50 (HCC202): 8.4
-log10 GI50 (UACC893): 8.14
-log10 GI50 (184A1): 8.41
-log10 GI50 (SUM102PT): 8.48
-log10 GI50 (ZR7530): 8.15
-log10 GI50 (MDAMB468): 7.74

COC(=O)Nc1nc2cc(C(=O)c3ccccc3)ccc2[nH]1 [Mebendazole]
-log10 GI50 (21NT): 6.08
-log10 GI50 (600MPE): 5
-log10 GI50 (MDAMB175VII): 6.6
-log10 GI50 (21MT1): 4.74
-log10 GI50 (HCC3153): 6.69
-log10 GI50 (SUM229PE): 5.68
-log10 GI50 (BT20): 6.19
-log10 GI50 (HCC1569): 5.31
-log10 GI50 (MX1): 6.42
-log10 GI50 (HCC202): 6.68
-log10 GI50 (184A1): < 4.18
-log10 GI50 (ZR7530): 6.35

Cc1c(O)cccc1C(=O)N[C@@H](CSc1ccccc1)[C@H](O)CN1C[C@H]2CCCC[C@H]2C[C@H]1C(=O)NC(C)(C)C [Nelfinavir]
-log10 GI50 (21NT): 4.57
-log10 GI50 (MDAMB134VI): 5.06
-log10 GI50 (600MPE): 5.05
-log10 GI50 (MDAMB175VII): 5.15
-log10 GI50 (21MT1): 4.87
-log10 GI50 (HCC3153): 5.21
-log10 GI50 (SUM229PE): 4.84
-log10 GI50 (BT20): 5.16
-log10 GI50 (HCC1569): < 4.48
-log10 GI50 (MX1): 5.15
-log10 GI50 (HCC202): 5.34
-log10 GI50 (184A1): 5.48
-log10 GI50 (ZR7530): 5.74
